Assay results published in ChEMBL document CHEMBL2440114, “Methanolysis of triterpenoid saponin from Ardisia gigantifolia stapf. and structure-activity relationship study against cancer cells” (Bioorg Med Chem Lett, 2013).

What was measured:
Bel-7402 [1] = assay: Antiproliferative activity against human Bel7402 cells by MTT assay; assay type: functional, cell-based
HCT-8 = assay: Antiproliferative activity against human HCT8 cells by MTT assay; assay type: functional, cell-based
A549 = assay: Antiproliferative activity against human A549 cells by MTT assay; assay type: functional, cell-based
HeLa = assay: Cytotoxicity against human HeLa cells; assay type: functional, cell-based
EJ = assay: Cytotoxicity against human EJ cells; assay type: functional, cell-based
HepG2 = assay: Cytotoxicity against human HepG2 cells; assay type: functional, cell-based
[2] = Cytotoxicity against human […] cells; assay type: functional, cell-based
Bel-7402 [3] = assay: Antiproliferative activity against human Bel7402 cells after 12 to 72 hrs by MTT assay; assay type: functional, cell-based
Bel-7402 [4] = assay: Antiproliferative activity against human Bel7402 cells at 0.5 to 20 uM by MTT assay; assay type: functional, cell-based; conditions: TDE = time-dependent effect
Bel-7402 [5] = assay: Cell cycle arrest in human Bel7402 cells assessed as accumulation in G1 phase (reference value: 37.6+/- 1.4 %); assay type: functional
Bel-7402 [6] = assay: Cell cycle arrest in human Bel7402 cells assessed as accumulation in G2/M phase (reference value: 43.75+/- 1.1 %); assay type: functional
Bel-7402 [7] = assay: Cell cycle arrest in human Bel7402 cells assessed as accumulation in S phase (reference value: 18.65+/- 0.5 %); assay type: functional

SMILES | IC50 (Bel-7402 [1]) [µM] | IC50 (HCT-8) [µM] | IC50 (A549) [µM] | further results
C[C@@H]1O[C@@H](O[C@H]2[C@H](O)[C@@H](CO)O[C@@H](O[C@H]3CO[C@@H](O[C@H]4CC[C@]5(C)[C@H]6CC[C@]78OC[C@@]9(CC[C@](C)(CO)C[C@H]97)C(=O)C[C@@]8(C)[C@]6(C)CC[C@H]5C4(C)C)[C@H](O[C@@H]4O[C@H](CO)[C@@H](O)[C@H](O)[C@H]4O)[C@H]3O)[C@@H]2O[C@@H]2OC[C@@H](O)[C@H](O)[C@H]2O)[C@H](O)[C@H](O)[C@H]1O | 3.6 | 3.41 | 3.77 | 
C[C@@H]1O[C@@H](O[C@H]2[C@H](O)[C@@H](CO)O[C@@H](O[C@H]3CO[C@@H](O[C@H]4CC[C@]5(C)[C@H]6CC[C@]78OC[C@@]9(CC[C@](C)(C=O)C[C@H]97)C(=O)C[C@@]8(C)[C@]6(C)CC[C@H]5C4(C)C)[C@H](O)[C@H]3O)[C@@H]2O[C@@H]2OC[C@@H](O)[C@H](O)[C@H]2O)[C@H](O)[C@H](O)[C@H]1O | 6.9 | 7.73 | 10 | 
C[C@@H]1O[C@@H](O[C@H]2[C@H](O)[C@@H](CO)O[C@@H](O[C@H]3CO[C@@H](O[C@H]4CC[C@]5(C)[C@H]6CC[C@]78OC[C@@]9(CC[C@](C)(C=O)C[C@H]97)[C@H](O)C[C@@]8(C)[C@]6(C)CC[C@H]5C4(C)C)[C@H](O[C@@H]4O[C@H](CO)[C@@H](O)[C@H](O)[C@H]4O)[C@H]3O)[C@@H]2O[C@@H]2OC[C@@H](O)[C@H](O)[C@H]2O)[C@H](O)[C@H](O)[C@H]1O | 1.58 | > 100 | > 100 | IC50 (HeLa): 1.8 µM; IC50 (EJ): 2 µM; IC50 (HepG2): 1.9 µM; IC50 [2]: 2.1 µM
CC1(C)[C@@H](O[C@@H]2OC[C@H](O[C@@H]3O[C@H](CO)[C@@H](O)[C@H](O)[C@H]3O[C@@H]3OC[C@@H](O)[C@H](O)[C@H]3O)[C@H](O)[C@H]2O)CC[C@]2(C)[C@H]3CC[C@]45OC[C@@]6(CC[C@](C)(C=O)C[C@H]64)[C@H](O)C[C@@]5(C)[C@]3(C)CC[C@@H]12 [PRIMULANIN] | 10.3 | 8.43 | 12 | 
C[C@@H]1O[C@@H](O[C@H]2[C@H](O)[C@@H](CO)O[C@@H](O[C@H]3CO[C@@H](O[C@H]4CC[C@]5(C)[C@H]6CC[C@]78OC[C@@]9(CC[C@](C)(C=O)C[C@H]97)[C@H](O)C[C@@]8(C)[C@]6(C)CC[C@H]5C4(C)C)[C@H](O[C@@H]4O[C@H](CO)[C@@H](O)[C@H](O)[C@H]4O)[C@H]3O)[C@@H]2O[C@@H]2OC[C@@H](O)[C@H](O[C@@H]3O[C@H](CO)[C@@H](O)[C@H](O)[C@H]3O)[C@H]2O)[C@H](O)[C@H](O)[C@H]1O | 3.2 | 2 | 3.2 | 
O=c1[nH]cc(F)c(=O)[nH]1 [FLUOROURACIL] | 8.3 | 6.92 |  | 
CC(=O)OC[C@H]1O[C@@H](O[C@H]2[C@H](O[C@H]3CC[C@]4(C)[C@H]5CC[C@]67OC[C@@]8(CCC(C)(C)C[C@H]86)[C@H](O)C[C@@]7(C)[C@]5(C)CC[C@H]4C3(C)C)OC[C@H](O[C@@H]3O[C@H](CO)[C@@H](O)[C@H](O[C@@H]4O[C@@H](C)[C@H](O)[C@@H](O)[C@H]4O)[C@H]3O[C@@H]3OC[C@@H](O)[C@H](O)[C@H]3O)[C@@H]2O)[C@H](O)[C@@H](O)[C@@H]1O | 8.4 | 9.28 | 8.06 | 
CCCCO[C@@H]1OC[C@]23CC[C@@]1(C)C[C@H]2C1=CC[C@@H]2[C@@]4(C)CC[C@H](O[C@@H]5OC[C@H](O[C@@H]6O[C@H](CO)[C@@H](O)[C@H](O)[C@H]6O)[C@H](O)[C@H]5O[C@@H]5O[C@H](CO)[C@@H](O)[C@H](O)[C@H]5O)C(C)(C)[C@@H]4CC[C@@]2(C)[C@]1(C)C[C@H]3O | 7.34 | > 100 | 10.6 | 
CCCCO[C@H]1OC[C@]23CC[C@@]1(C)C[C@H]2C1=CC[C@@H]2[C@@]4(C)CC[C@H](O)C(C)(C)[C@@H]4CC[C@@]2(C)[C@]1(C)C[C@H]3O | 53.1 | > 100 | 44.3 | 
CC(=O)OC[C@@]1(C)CC[C@]23CO[C@@]4(CC[C@@H]5[C@@]6(C)CC[C@H](O[C@@H]7OC[C@H](O[C@@H]8O[C@H](CO)[C@@H](O)[C@H](O[C@@H]9O[C@@H](C)[C@H](O)[C@@H](O)[C@H]9O)[C@H]8O[C@@H]8OC[C@@H](O)[C@H](O[C@@H]9O[C@H](CO)[C@@H](O)[C@H](O)[C@H]9O)[C@H]8O)[C@H](O)[C@H]7O[C@@H]7O[C@H](CO)[C@@H](O)[C@H](O)[C@H]7O)C(C)(C)[C@@H]6CC[C@@]5(C)[C@]4(C)C[C@H]2O)[C@@H]3C1 | 2.71 | 5.73 | 6.33 | 
CC(=O)OC[C@H]1O[C@@H](O[C@H]2[C@H](O[C@H]3CC[C@]4(C)[C@H]5CC[C@]67OC[C@@]8(CC[C@](C)(C=O)C[C@H]86)[C@H](O)C[C@@]7(C)[C@]5(C)CC[C@H]4C3(C)C)OC[C@H](O[C@@H]3O[C@H](CO)[C@@H](O)[C@H](O[C@@H]4O[C@@H](C)[C@H](O)[C@@H](O)[C@H]4O)[C@H]3O[C@@H]3OC[C@@H](O)[C@H](O)[C@H]3O)[C@@H]2O)[C@H](O)[C@@H](O)[C@@H]1O | 7.76 | 4.1 | 7.52 | 
C[C@@H]1O[C@@H](O[C@H]2[C@H](O)[C@@H](CO)O[C@@H](O[C@H]3CO[C@@H](O[C@H]4CC[C@]5(C)[C@H]6CC[C@]78OC[C@@]9(CCC(C)(C)C[C@H]97)[C@H](O)C[C@@]8(C)[C@]6(C)CC[C@H]5C4(C)C)[C@H](O[C@@H]4O[C@H](CO)[C@@H](O)[C@H](O)[C@H]4O)[C@H]3O)[C@@H]2O[C@@H]2OC[C@@H](O)[C@H](O[C@@H]3O[C@H](CO)[C@@H](O)[C@H](O)[C@H]3O)[C@H]2O)[C@H](O)[C@H](O)[C@H]1O | 7.83 | 10.1 | 8.15 | Activity (Bel-7402 [3]): Dose-dependent effect; Activity (Bel-7402 [4]): tde; Activity (Bel-7402 [5]): 40.86%; Activity (Bel-7402 [6]): 59.94%
C[C@@H]1O[C@@H](O[C@H]2[C@H](O)[C@@H](CO)O[C@@H](O[C@H]3CO[C@@H](O[C@H]4CC[C@]5(C)[C@H]6CC[C@]78OC[C@@]9(CCC(C)(C)C[C@H]97)[C@H](O)C[C@@]8(C)[C@]6(C)CC[C@H]5C4(C)C)[C@H](O[C@@H]4O[C@H](CO)[C@@H](O)[C@H](O)[C@H]4O)[C@H]3O)[C@@H]2O[C@@H]2OC[C@@H](O)[C@H](O)[C@H]2O)[C@H](O)[C@H](O)[C@H]1O | 0.86 | > 100 | 51.8 | Activity (Bel-7402 [3]): Dose-dependent effect; Activity (Bel-7402 [4]): tde; Activity (Bel-7402 [5]): 33.31%; Activity (Bel-7402 [7]): 18.61%; Activity (Bel-7402 [6]): 48.08%
CC1(C)CC[C@]23CO[C@@]4(CC[C@@H]5[C@@]6(C)CC[C@H](O[C@@H]7OC[C@H](O[C@@H]8O[C@H](CO)[C@@H](O)[C@H](O)[C@H]8O[C@@H]8OC[C@@H](O)[C@H](O)[C@H]8O)[C@H](O)[C@H]7O[C@@H]7O[C@H](CO)[C@@H](O)[C@H](O)[C@H]7O)C(C)(C)[C@@H]6CC[C@@]5(C)[C@]4(C)C[C@H]2O)[C@@H]3C1 [LYSIKOKIANOSIDE 1] | 6.77 | 10.1 | 4.37 | 
CC(=O)OC[C@@]1(C)CC[C@]23CO[C@@]4(CC[C@@H]5[C@@]6(C)CC[C@H](O[C@@H]7OC[C@H](O[C@@H]8O[C@H](CO)[C@@H](O)[C@H](O[C@@H]9O[C@@H](C)[C@H](O)[C@@H](O)[C@H]9O)[C@H]8O[C@@H]8OC[C@@H](O)[C@H](O)[C@H]8O)[C@H](O)[C@H]7O[C@@H]7O[C@H](CO)[C@@H](O)[C@H](O)[C@H]7O)C(C)(C)[C@@H]6CC[C@@]5(C)[C@]4(C)C[C@H]2O)[C@@H]3C1 | > 100 | > 100 | 59.7 | 
CCCCO[C@@H]1OC[C@]23CC[C@@]1(C)C[C@H]2C1=CC[C@@H]2[C@@]4(C)CC[C@H](O)C(C)(C)[C@@H]4CC[C@@]2(C)[C@]1(C)C[C@H]3O | 11.6 | > 100 | > 100 | 
CCCCO[C@H]1OC[C@]23CC[C@@]1(C)C[C@H]2C1=CC[C@@H]2[C@@]4(C)CC[C@H](O[C@@H]5OC[C@H](O[C@@H]6O[C@H](CO)[C@@H](O)[C@H](O)[C@H]6O)[C@H](O)[C@H]5O[C@@H]5O[C@H](CO)[C@@H](O)[C@H](O)[C@H]5O)C(C)(C)[C@@H]4CC[C@@]2(C)[C@]1(C)C[C@H]3O | > 100 | > 100 | > 100 | 
C[C@@H]1O[C@@H](O[C@H]2[C@H](O)[C@@H](CO)O[C@@H](O[C@H]3CO[C@@H](O[C@H]4CC[C@]5(C)[C@H]6CC[C@]78OC[C@@]9(CC[C@](C)(CO)C[C@H]97)[C@H](O)C[C@@]8(C)[C@]6(C)CC[C@H]5C4(C)C)[C@H](O[C@@H]4O[C@H](CO)[C@@H](O)[C@H](O)[C@H]4O)[C@H]3O)[C@@H]2O[C@@H]2OC[C@@H](O)[C@H](O)[C@H]2O)[C@H](O)[C@H](O)[C@H]1O | > 100 | 8.63 | 31 | 
